Where a SMILES comes first, the peptide text is derived from it. The star is where a group is joined. Cbz = O=C(OCc1ccccc1)*
Columns and labels:
HBV [1] = experiment: Inhibition of HBV virus replication in HepG2.2.15 cells (HBV DNA level in supernatant); format: cell-based, hepatitis B virus; conditions: after 7 days of administration, P≤0.001 vs blank group
Protocol: In vitro cell model 1: HepG2 cells transfected with hepatitis B virus (HBV), namely HepG2 2.2.15 cells.
(§1) Positive drug control: entecavir (ETV).
(§2) Experimental procedure: HepG2.2.15 cells and stable toxigenic HepAD38 cells were divided into six experimental groups. The number of cells in each well was 7×10^4, and the amount of medium in each well was 500 μl. The first group was a blank control, the second group was a positive control, and 3.75 nM ETV was added; the third to sixth groups were added with 3.75 nM, 100 nM, 5 μM and 100 μM compound (I, TPD00203). The supernatant was collected on the 3rd day after administration and the HBV DNA level in the supernatant was detected. On the seventh day, the supernatant was collected again and the cells were pelleted, and the level of HBV DNA in the supernatant was detected.

HBV [2] = experiment: Inhibition of HBV virus replication in HepAD38 cells (HBV DNA level in supernatant); format: cell-based, hepatitis B virus; conditions: for inhibition of virus replication: all tested dose levels 10 nM, P≤0.001; for inhibitory effect on virus replication: after 7 days, TPD00203 each dose group (3.75 nM, 100 nM, 5 μM, 100 μM), ETV 3.75 nM; for inhibition at 0.01 µM / inhibition at 0.1 µM / inhibition at 1 µM / inhibition at 10 µM: Hepatitis B virus, HepAD38 cell line, read-out: Antiviral activity of the compound at different concentrations; for inhibition at 1 µM: 1000 nM; for inhibition at 10 µM: 10000 nM
Protocol: In vitro cell model 2: Stable toxigenic HepAD38 cells.
as §1, §2
After the preliminary evaluation of the virus-inhibiting effect of TPD00203, the inhibitory effects of the same dose of TPD00203 and ETV were determined in HepAD38 cell line. ETV and TPD00203 were 4 dose groups of 10 nM, 100 nM, 1 μM, and 10 μM.
The inhibitory activity of compounds (I-X) on the virus in HepAD38 cell line was determined by the same method as in Example 6, and the results were shown in the following table.

HBV P protein = target: T1, HBV P protein (Hepatitis B virus genotype D subtype ayw, UniProt P03156); experiment: Degradation of flag-tagged HBV P protein in transfected Huh7 cells (Western Blot); format: cell-based
T1 construct: flag; expressed in transfected cells; host or cells: Huh7
T1 sequence (P03156 whole entry): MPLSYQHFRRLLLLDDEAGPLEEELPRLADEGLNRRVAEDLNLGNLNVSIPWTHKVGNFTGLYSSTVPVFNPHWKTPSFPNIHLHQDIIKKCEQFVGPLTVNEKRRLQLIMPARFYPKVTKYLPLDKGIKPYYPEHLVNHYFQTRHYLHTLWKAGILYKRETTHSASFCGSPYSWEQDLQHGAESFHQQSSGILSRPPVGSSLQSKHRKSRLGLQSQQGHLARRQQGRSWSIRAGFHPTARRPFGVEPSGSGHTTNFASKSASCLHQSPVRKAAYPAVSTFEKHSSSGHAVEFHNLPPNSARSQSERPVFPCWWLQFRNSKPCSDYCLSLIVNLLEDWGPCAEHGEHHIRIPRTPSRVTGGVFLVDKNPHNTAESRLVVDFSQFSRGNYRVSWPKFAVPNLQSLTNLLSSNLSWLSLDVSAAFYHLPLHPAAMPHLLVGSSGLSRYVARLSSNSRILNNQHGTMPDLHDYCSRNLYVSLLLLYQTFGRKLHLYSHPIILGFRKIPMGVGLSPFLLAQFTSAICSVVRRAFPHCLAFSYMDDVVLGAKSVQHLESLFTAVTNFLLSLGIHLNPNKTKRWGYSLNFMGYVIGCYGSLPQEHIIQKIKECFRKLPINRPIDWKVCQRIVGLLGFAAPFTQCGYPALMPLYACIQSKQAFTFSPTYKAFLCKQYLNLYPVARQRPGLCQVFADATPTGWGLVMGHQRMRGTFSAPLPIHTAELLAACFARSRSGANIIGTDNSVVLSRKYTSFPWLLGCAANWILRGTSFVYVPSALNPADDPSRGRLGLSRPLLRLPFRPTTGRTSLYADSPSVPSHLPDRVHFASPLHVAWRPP
Protocol: In vitro cell model: Huh7.
Proteasome inhibitor: MG132
The Huh7 cells cultured in the medium containing 10 μM TPD00203 drug were used to transfect the flag-tagged P protein overexpression plasmid, and the medium containing 10 μM TPD00203 drug was changed 6 hours after transfection, and MG132 (final concentration 10 μM) was added 24 hours after transfection to inhibit the degradation of P protein, and cells were harvested after MG132 treatment for 12 hours. MG132 is a reversible proteasome inhibitor. After MG132 was removed, the cells were cultured in a medium containing 10 μM TPD00203 for 12 hours, and the cells were harvested. The expression of P protein was detected by Western Blot experiment. DMSO was used as a control.

[3] = target: T2, HBV P protein (DNA polymerase) (Hepatitis B virus genotype D subtype ayw, UniProt P03156); experiment: Degradation of HBV P protein (DNA polymerase) in Huh7-HBP cell line (Nano-Glo HiBiT/LgBiT luminescence); format: cell-based; conditions: read-out: Degradation activity of DNA polymerase at different concentrations of compounds; for inhibition at 0.1 µM: 100 nM; for inhibition at 0.3 µM: 300 nM; for inhibition at 1 µM: 1000 nM; for inhibition at 3 µM: 3000 nM; for inhibition at 10 µM: 10000 nM
T2 construct: expressed in transfected cells; host or cells: Huh7-LgBiT cells transduced with pLVX-HBP-Puro lentivirus (Huh7-HBP)
T2 sequence (P03156 whole entry): as above
Protocol: The transfected huh-7-HBP cell line was digested and suspended, 100 μl of cell suspension was added to each well of a 96-well plate at a concentration of 2×10^5/ml, and incubated overnight. 10 μl of drug was added to each well according to the pre-set dose, and each dose of each drug should be at least two replicate wells. After shaking gently, the cell suspension was put back into the incubator, and incubated for 1-24 h according to the specific situation. Nano-Glo@ LCS Dilution Buffer and Nano-Glo@ Live Cell Substrate two reagents in the Nano-Glo@Live Cell Assay System kit were mixed at a ratio of 20:1, and added to the cell plate to be tested at a ratio of 25 ul per 100 ul system. After shaking for 30 seconds, full wavelength luminosity was measured using BMG Labtech FLUOstar Omega ELIASA. The higher the luminescence value, the higher the HBP content of the target protein.
According to method 1, the degradation effect of target compounds I-X on HBV P protein at 5 different concentrations was determined.

[4] = HepAD38 cells, 7 days, 100 nM, 1 μM, 10 μM

SMILES	inhibitory effect on virus replication (HBV [1]; 3.75 nM)	inhibitory effect on virus replication (HBV [1]; 5 μM)	inhibitory effect on virus replication (HBV [1]; 100 μM)	virus-inhibiting effect compared with ETV at the same dose (HBV [2]; HepAD38 cells, 7 days, 10 nM, 100 nM, 1 μM, 10 μM)	inhibition of virus replication (HBV [2]; [4])	inhibitory effect on virus replication (HBV [2]; HepAD38 cells)	inhibition at 0.01 µM (HBV [2]; 10 nM) [%]	inhibition at 0.1 µM (HBV [2]; 100 nM) [%]	inhibition at 1 µM (HBV [2]) [%]	inhibition at 10 µM (HBV [2]) [%]	P protein degradation (Western Blot) (HBV P protein; Huh7 cells transfected with flag-Polymerase plasmid, 10 μM TPD00203, 36 hours after transfection)	inhibition at 0.1 µM [3] [%]	inhibition at 0.3 µM [3] [%]	inhibition at 1 µM [3] [%]	inhibition at 3 µM [3] [%]	inhibition at 10 µM [3] [%]	effect of proteasome inhibitor on drug-induced P protein degradation (HBV P protein; Huh7 cells, MG132 final concentration 10 μM added 24 hours after transfection, with 10 μM TPD00203)
C=C1[C@H](CO)[C@H](O)C[C@@H]1n1cnc2c(OCCCCCCCCCC(=O)N[C@H](C(=O)N3C[C@H](O)C[C@H]3C(=O)NCc3ccc(-c4scnc4C)cc3)C(C)(C)C)nc(N)nc21 [Compound I]	significant inhibition of viral replication	significant inhibition of viral replication	significant inhibition of viral replication	better virus-inhibiting effect than ETV	significantly inhibit virus replication	significant inhibitory effect on virus replication	> 60	> 60	> 60	> 60	promote P protein degradation	< 30	30 to 70	30 to 70	> 70	> 70	
C=C1[C@H](CNC(=O)CCCCCCCCC(=O)N[C@H](C(=O)N2C[C@H](O)C[C@H]2C(=O)NCc2ccc(-c3scnc3C)cc2)C(C)(C)C)[C@H](O)C[C@@H]1n1cnc2c(=O)[nH]c(N)nc21 [Compound VI, N1-(((1R,3S)-3-(2-amino-6-oxo-1,6-dihydro-9H-purin-9-yl)-5-hydroxy-2-methylenecyclopentyl)methyl)-N10-((S)-1-((2S,4R)-4-hydroxy-2-((4-(4-methylthiazol-5-yl)benzyl)carbamoyl)pyrrolidin-1-yl)-3,3-dimethyl-1-oxobutan-2-yl) decanoic acid diamide]							10 to 30	30 to 60	> 60	> 60		< 30	30 to 70	30 to 70	> 70	> 70	
C=C1[C@H](CNC(=O)CN2CCN(CCCC(=O)N[C@H](C(=O)N3C[C@H](O)C[C@H]3C(=O)NCc3ccc(-c4scnc4C)cc3)C(C)(C)C)CC2)[C@H](O)C[C@@H]1n1cnc2c(=O)[nH]c(N)nc21 [Compound VII]							10 to 30	10 to 30	30 to 60	30 to 60		< 30	< 30	< 30	30 to 70	30 to 70	
C=C1[C@H](CO)[C@H](O)C[C@@H]1n1cnc2c(OCCOCCOCCCC(=O)N[C@H](C(=O)N3C[C@H](O)C[C@H]3C(=O)NCc3ccc(-c4scnc4C)cc3)C(C)(C)C)nc(N)nc21 [Compound V]							10 to 30	30 to 60	30 to 60	30 to 60		< 30	30 to 70	30 to 70	30 to 70	30 to 70	
C=C1[C@H](CO)[C@H](O)C[C@@H]1n1cnc2c(OCCN3CCC(CCCC(=O)N[C@H](C(=O)N4C[C@H](O)C[C@H]4C(=O)NCc4ccc(-c5scnc5C)cc4)C(C)(C)C)CC3)nc(N)nc21 [III]							> 60	> 60	> 60	> 60		< 30	< 30	30 to 70	30 to 70	> 70	
C=C1[C@H](CO)[C@H](O)C[C@@H]1n1cnc2c(OCCN3CCN(CCCC(=O)N[C@H](C(=O)N4C[C@H](O)C[C@H]4C(=O)NCc4ccc(-c5scnc5C)cc4)C(C)(C)C)CC3)nc(N)nc21 [II]							10 to 30	10 to 30	30 to 60	> 60		< 30	< 30	< 30	30 to 70	30 to 70	
C=C1[C@H](CNC(=O)CN2CCC(OCCC(=O)N[C@H](C(=O)N3C[C@H](O)C[C@H]3C(=O)NCc3ccc(-c4scnc4C)cc3)C(C)(C)C)CC2)[C@H](O)C[C@@H]1n1cnc2c(=O)[nH]c(N)nc21 [IX]							30 to 60	30 to 60	> 60	> 60							
CC(C)C[C@@H](C=O)NC(=O)[C@H](CC(C)C)NC(=O)[C@H](CC(C)C)NC(=O)OCc1ccccc1 [MG132, reference compound] (Cbz-Leu-Leu-Leu-aldehyde)																	inhibited drug degradation
C=C1[C@H](CNC(=O)CN2CCC(CCCC(=O)N[C@H](C(=O)N3C[C@H](O)C[C@H]3C(=O)NCc3ccc(-c4scnc4C)cc3)C(C)(C)C)CC2)[C@H](O)C[C@@H]1n1cnc2c(=O)[nH]c(N)nc21 [VIII]							30 to 60	30 to 60	30 to 60	> 60		< 30	< 30	30 to 70	30 to 70	> 70	
C=C1[C@H](CO)[C@@H](O)C[C@@H]1n1cnc2c(=O)[nH]c(N)nc21 [entecavir, reference compound]	significant inhibitory effect on virus replication				significantly inhibit virus replication	significant inhibitory effect on virus replication											

— US20240299557A1, “COMPOUND FOR DEGRADING DEOXYRIBONUCLEIC ACID (DNA) POLYMERASE, AND USE THEREOF” (TAIBIDI PHARMACEUTICAL TECHNOLOGY (SHIJIAZHUANG) CO., LTD., priority 2021, published 2024)
